Format in all cases: in vivo
In assay [1] the test system is German cockroaches (Blattella germanica). Nature of the assay: Spray knockdown test on German cockroaches (Test Examples 1, 2). The note with it: 5 min, 1.5 ml sprayed, counted after 5 minutes, read-out: knockdown rate; for pest or weed control at 0.5 %: active ingredient 0.5% w/v oil solution; for pest or weed control at 2 %: active ingredient 2.0% w/v oil solution. The procedure:
The formulations of Compounds (7), (46), (48) and (54) of the present invention obtained in Formulation Example 7 were diluted with a mixture solution of isopropyl alcohol/deodorized kerosene of 1/9, so as to have a concentration of active ingredient of 2.0% w/v, to prepare a test drug solution.
Ten German cockroaches (Blattella germanica) (5 males and 5 females) were released in a test container (8.75 cm in diameter, 7.5 cm in height, and the bottom made of 16 mesh metallic wire) with the inner wall on which butter was applied, and the container was placed on the bottom of a test chamber (bottom: 46 cm×46 cm, height: 70 cm). From a height of 60 cm above the upper surface of the container, 1.5 ml of the test drug solution was sprayed using a spray gun (a spraying pressure of 0.42 kg/cm^2). Thirty seconds after spraying, the container was taken out from the test chamber, and after 5 minutes, the number of knockdown insects was counted to obtain a knockdown rate. The knockdown rate was calculated by the following equation.
(§1) Knockdown Rate(%)=(Number of Knockdown Insects/Number of Tested Insects)×100
The formulations of Compounds (1), (2), (4), (6) to (8), (10) to (14), (17) to (20), (23) to (25), (28), (31) to (33), (39) to (42), (44) and (50) to (53) of the present invention obtained in Formulation Example 7 were diluted with a mixture solution with a ratio of isopropyl alcohol/deodorized kerosene of 1/9, so as to have a concentration of active ingredient of 0.5% w/v, to prepare a test drug solution.
The test was performed in the same manner as in Test Example 1.

The test system of assay [2] is adult houseflies (Musca domestica). Nature of the assay: Filter paper/sucrose bait knockdown test on adult houseflies (Test Example 7). The note with it: 0.7 ml on filter paper with sucrose bait, after 2 hours, read-out: knockdown rate. How it is done: Each of the formulations of Compounds (2), (4) to (6), (8), (9), (18), (21) to (23), (27), (29), (32) to (36), (38), (41), (42) and (53) of the present invention obtained in Formulation Example 15 was diluted with water, so as to have a concentration of active ingredient of 500 ppm, to prepare a test drug solution.
On the bottom of a polyethylene cup with a diameter of 5.5 cm, a filter paper of the same size was laid down, and 0.7 ml of the test drug solution was dropped onto the filter paper, then 30 mg of sucrose was uniformly put as bait. Ten adult houseflies (Musca domestica) were released in the polyethylene cup which was then capped. After 2 hours, the number of knockdown insects was counted to obtain a knockdown rate. The knockdown rate was calculated by the following equation.
as §1

For assay [3], the system named is last instar larvae of common house mosquitoes (Culex pipiens pallens). Nature of the assay: Larvicidal test on common house mosquito larvae in water (Test Examples 9, 10). The note with it: active ingredient 3.5 ppm in water. The procedure: Each of the formulations of Compounds (26) and (45) of the present invention obtained in Formulation Example 15 was diluted with water, so as to have a concentration of active ingredient of 500 ppm, to prepare a test drug solution.
0.7 ml of the test drug solution was added to 100 ml of ion-exchanged water (a concentration of active ingredient of 3.5 ppm).
Each of the formulations of Compounds (5), (6), (24), (27), (29), (30), (33), (38) and (47) of the present invention obtained in Formulation Example 15 was diluted with water, so as to have a concentration of active ingredient of 500 ppm, to prepare a test drug solution.

The test system of assay [4] is adult houseflies (Musca domestica). Nature of the assay: Filter paper/sucrose bait mortality test on adult houseflies (Test Example 8). The note with it: 0.7 ml on filter paper with sucrose bait, after 24 hours. How it is done: Each of the formulations of Compounds (2) to (6), (8), (12), (15) to (18), (27), (29), (33), (37) to (39), (41), (42) and (45) of the present invention obtained in Formulation Example 15 was diluted with water, so as to have a concentration of active ingredient of 500 ppm, to prepare a test drug solution.
On the bottom of a polyethylene cup with a diameter of 5.5 cm, a filter paper of the same size was laid down, and 0.7 ml of the test drug solution was dropped onto the filter paper, then 30 mg of sucrose was uniformly put as bait. Ten adult houseflies (Musca domestica) were released in the polyethylene cup which was then capped.

For assay [5], the system named is adult houseflies. Nature of the assay: Spray knockdown test on adult houseflies (Test Examples 3, 4). The note with it: Musca domestica, 10 min, 0.5 ml sprayed, counted after 10 minutes, read-out: knockdown rate; for pest or weed control at 0.5 %: active ingredient 0.5% w/v oil solution; for pest or weed control at 2 %: active ingredient 2.0% w/v oil solution. How it is done: The formulations of Compounds (7), (46) and (48) of the present invention obtained in Formulation Example 7 were diluted with a mixture solution with a ratio of isopropyl alcohol/deodorized kerosene of 1/9, so as to have a concentration of active ingredient of 2.0% w/v, to prepare a test drug solution.
Ten adult houseflies (5 males and 5 females) were released in a polyethylene cup (a bottom diameter of 10.6 cm) which was then capped with 16-mesh nylon gauze. The polyethylene cup was placed on the bottom of a test chamber (bottom: 46 cm×46 cm, height: 70 cm). From a height of 30 cm above the upper surface of the polyethylene cup, 0.5 ml of the test drug solution was sprayed using a spray gun (a spraying pressure of 0.9 kg/cm^2). Immediately after spraying, the cup was taken out from the test container, and after 10 minutes, the number of knockdown insects was counted to obtain a knockdown rate. The knockdown rate was calculated by the following equation.
as §1
The formulations of Compounds (4), (6), (8), (17) to (19), (28), (29), (33), (40) to (42) and (51) to (53) of the present invention obtained in Formulation Example 7 were diluted with a mixture solution with a ratio of isopropyl alcohol/deodorized kerosene of 1/9, so as to have a concentration of active ingredient of 0.5% w/v, to prepare a test drug solution. The test was performed in the same manner as in Test Example 3.

The record followed here is patent publication US20150045409A1, “AMIDE COMPOUND AND USE THEREOF FOR PEST CONTROL” (SUMITOMO CHEMICAL COMPANY, LIMITED, priority 2012, published 2015).

`CCCCCC/C=C/C(=O)NCC1CCOC1` (centres unmarked) [Compound (2), (E)-N-(tetrahydrofuran-3-ylmethyl)-2-nonenamide]: in assay [1], the pest or weed control at 0.5 % is no less than 70%. The pest or weed control at 500 ppm in assay [2] was determined as 100%. As a reminder, the mortality is the share of the test organisms that died. A high value points to fewer survivors. With `CCCCCC/C=C/C(=O)NCC1COCCO1` (centres unmarked) [Compound (47), (E)-N-(1,4-dioxan-2-ylmethyl)-2-nonenamide], the mortality at 3.5 ppm in assay [3] (192 h, after 8 days) is no less than 95%.

For `CCCC1CC1/C=C/C(=O)NCC1CCOCC1` (stereo not drawn) [Compound (41), (E)-N-(tetrahydropyran-4-ylmethyl)-3-(trans-2′-propylcyclopropyl)-2-propenamide], the pest or weed control at 500 ppm in assay [2] turned out to be 100%. Also, the mortality at 500 ppm in assay [4] is no less than 90%. `CCCCCC/C(C)=C(/F)C(=O)NCC1CCOC1` (centres unmarked) [Compound (9), (E)-N-(tetrahydrofuran-3-ylmethyl)-2-fluoro-3-methyl-2-nonenamide]: the pest or weed control at 500 ppm in assay [2] is 100%. In the case of `CCCCCC/C(C)=C(/F)C(=O)NCC1CCOCC1` [Compound (30), (E)-N-(tetrahydropyran-4-ylmethyl)-2-fluoro-3-methyl-2-nonenamide], the mortality at 3.5 ppm in assay [3] (192 h, after 8 days) is no less than 95%. Turning to `CCCCC1CC1/C=C/C(=O)NCC1CCOCC1` (stereo not drawn) [Compound (42), (E)-N-(tetrahydropyran-4-ylmethyl)-3-(trans-2′-butylcyclopropyl)-2-propenamide], the pest or weed control at 500 ppm in assay [2] was 100%. In assay [4], this compound had a mortality at 500 ppm of no less than 90%. In assay [3] (192 h, after 8 days), `CCCCC/C=C/C(=O)NCC1CCOCC1` [Compound (24), (E)-N-(tetrahydropyran-4-ylmethyl)-2-octenamide] yielded a mortality at 3.5 ppm of no less than 95%. Consider `CCCCCC/C(C)=C/C(=O)NCC1CCOCC1` [Compound (28), (E)-N-(tetrahydropyran-4-ylmethyl)-3-methyl-2-nonenamide], for which the pest or weed control at 0.5 % in assay [1] was no less than 70%; in assay [5] it was no less than 80%. In the case of `CCCCCCCC/C=C/C(=O)NCC1CCOC1` (centres unmarked) [Compound (5), (E)-N-(tetrahydrofuran-3-ylmethyl)-2-undecenamide], the mortality at 3.5 ppm in assay [3] (192 h, after 8 days) was no less than 95%. `CCCCCCC/C=C/C(=O)NCC1CCOC1` (centres unmarked) [Compound (4), (E)-N-(tetrahydrofuran-3-ylmethyl)-2-decenamide]: the pest or weed control at 0.5 % in assay [1] is no less than 70%; in assay [5] it was no less than 80%.

`CCCCCCC/C=C/C(=O)NCC1CCOCC1` [Compound (26), (E)-N-(tetrahydropyran-4-ylmethyl)-2-decenamide] had a mortality at 3.5 ppm in assay [3] (after a day) of no less than 95%. As to `CCCCCC/C=C/C(=O)NCC1CCCCO1` (centres unmarked) [Compound (46), (E)-N-(tetrahydropyran-2-ylmethyl)-2-nonenamide], the pest or weed control at 2 % in assay [1] and in assay [5] was no less than 80% in each case. On to `CCC1CC1CC/C=C/C(=O)NCC1CCOCC1` (stereo not drawn) [Compound (44), (E)-N-(tetrahydropyran-4-ylmethyl)-5-(trans-2′-ethylcyclopropyl)-2-pentenamide], for which the pest or weed control at 0.5 % in assay [1] was no less than 70%. On to `C#CCCCC/C=C/C(=O)NCC1CCOCC1` [Compound (38), (E)-N-(tetrahydropyran-4-ylmethyl)-non-2-en-8-ynamide], for which the pest or weed control at 500 ppm in assay [2] was determined as 100%. In addition, the mortality at 3.5 ppm in assay [3] (192 h, after 8 days) is no less than 95%. On to `CC1CC1C1CC1/C=C/C(=O)NCC1CCOCC1` (stereo not drawn) [Compound (53), (E)-N-(tetrahydropyran-4-ylmethyl)-3-(trans-2′-(trans-2″-methylcyclopropyl)cyclopropyl)-2-propenamide], for which the pest or weed control at 500 ppm in assay [2] turned out to be 100%. With `C=CCCCCC/C=C/C(=O)NCC1CCOCC1` [Compound (33), (E)-N-(tetrahydropyran-4-ylmethyl)-deca-2,9-dienamide], the pest or weed control at 0.5 % in assay [5] was no less than 80%. The mortality at 500 ppm in assay [4] was no less than 90%. In addition, the mortality at 3.5 ppm in assay [3] (192 h, after 8 days) was no less than 95%.

For `CCCCCC/C(C)=C(\F)C(=O)NCC1CCOC1` (centres unmarked) [Compound (8), (Z)—N-(tetrahydrofuran-3-ylmethyl)-2-fluoro-3-methyl-2-nonenamide], the pest or weed control at 0.5 % in assay [5] is no less than 80%. Besides, the pest or weed control at 500 ppm in assay [2] is 100%. Besides, the mortality at 500 ppm in assay [4] is no less than 90%.

As for `O=C(/C=C/CCCCCl)NCC1CCOCC1` [Compound (54), (E)-N-(tetrahydropyran-4-ylmethyl)-7-chloro-2-heptenamide], the pest or weed control at 2 % in assay [1] is no less than 80%. Regarding `CCCCC/C=C/C(=O)NCC1CCOC1` (centres unmarked) [Compound (1), (E)-N-(tetrahydrofuran-3-ylmethyl)-2-octenamide], in assay [1], the pest or weed control at 0.5 % is no less than 70%.

Take `CCCC1CC1/C=C/C(=O)NCC1CCOC1` (stereo not drawn) [Compound (18), (E)-N-(tetrahydrofuran-3-ylmethyl)-3-(trans-2′-propylcyclopropyl)-2-propenamide]: in assay [2], the pest or weed control at 500 ppm was 100%. With `CCCCCC/C(C)=C/C(=O)NCC1CCOC1` (centres unmarked) [Compound (6), (E)-N-(tetrahydrofuran-3-ylmethyl)-3-methyl-2-nonenamide], the pest or weed control at 0.5 % in assay [5] is no less than 80%. The compound also registered a mortality at 3.5 ppm in assay [3] (192 h, after 8 days) of no less than 95%. `C=CCCCCC/C=C/C(=O)NCC1CCOC1` (centres unmarked) [Compound (12), (E)-N-(tetrahydrofuran-3-ylmethyl)-deca-2,9-dienamide] yielded a mortality at 500 ppm in assay [4] of no less than 90%. With `CCCCCC/C=C/C(=O)NCC1(CC)COCOC1` [Compound (48), (E)-N-(5-ethyl-1,3-dioxan-5-ylmethyl)-2-nonenamide], the pest or weed control at 2 % in assay [1] and in assay [5] was no less than 80% in each case.

For `CCCCCCCC/C=C/C(=O)NCC1CCOCC1` [Compound (27), (E)-N-(tetrahydropyran-4-ylmethyl)-2-undecenamide], the pest or weed control at 500 ppm in assay [2] turned out to be 100%. Besides, the mortality at 500 ppm in assay [4] was no less than 90%. This compound also yielded a mortality at 3.5 ppm in assay [3] (192 h, after 8 days) of no less than 95%.

On to `CCCCCC/C=C(\F)C(=O)NCC1CCOC1` (centres unmarked) [Compound (7), (Z)—N-(tetrahydrofuran-3-ylmethyl)-2-fluoro-2-nonenamide], for which the pest or weed control at 2 % in assay [1] and in assay [5] was no less than 80% throughout.
